Here are results for 15 molecules from PubChem BioAssay (NCI).

Test systems include T-47D breast; RXF 393 renal; HT29 colon; ACHN renal; OVCAR-8 ovarian; HCT-15 colon; HOP-62 NSCLC; UO-31 renal.
Experiment in all cases: NCI anticancer screen, dose series, 48 h

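A five-concentration, 48-hour dose response in 96-well plates underlies each endpoint, interpolated linearly between surrounding concentrations. Here, GI50 denotes the concentration required for 50% inhibition of growth. TGI is the concentration that stops growth completely.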

`Nc1nc(N)c2nc(CNc3ccc(C(=O)NC(CCNC(=O)c4ccccc4C(=O)O)C(=O)O)cc3)cnc2n1` (stereo unspecified): the TGI in the test with T-47D breast, in the test on RXF 393 renal, in the test with HT29 colon, with ACHN renal, in the test on OVCAR-8 ovarian and in the test on HCT-15 colon was above 100 µM each time. The TGI with HOP-62 NSCLC and in the test on UO-31 renal was above 100 µM each time. Also, the GI50 with RXF 393 renal is 0.967 µM; in the test on ACHN renal it was 0.0451 µM; with OVCAR-8 ovarian, 0.00813 µM; with HCT-15 colon, 0.0072 µM; in the test on HOP-62 NSCLC, 0.0635 µM; in the test with UO-31 renal, 0.04 µM.

`CON(C(=O)OC(C)(C)C)c1ccccc1`: the TGI in the test with T-47D breast, with RXF 393 renal, in the test on HT29 colon, in the test on ACHN renal, in the test with OVCAR-8 ovarian and in the test with HCT-15 colon was above 100 µM each time. Also, the TGI with HOP-62 NSCLC and with UO-31 renal was above 100 µM throughout.

As for `CN(C)CCCN=c1c2ccccc2n(C)c2[nH]c(=O)n(C)c(=O)c12`, the TGI in the test on T-47D breast is above 54.7 µM; with RXF 393 renal it was 30.1 µM; in the test on HT29 colon, 39.2 µM; in the test on ACHN renal it was 98.3 µM; with OVCAR-8 ovarian, above 100 µM; in the test with HCT-15 colon, above 100 µM. Also, the TGI with HOP-62 NSCLC was found to be 29.9 µM; with UO-31 renal it was 27.2 µM.

Turning to `COc1cc(C2c3cc4c(cc3OC(NNc3ccccc3)C2C)OCO4)cc(OC)c1O` (stereo unspecified), the TGI with T-47D breast came out at 10.7 µM; with RXF 393 renal, 13.7 µM; in the test with HT29 colon, 16.7 µM; in the test with ACHN renal, 10.4 µM; with OVCAR-8 ovarian it was 23.8 µM; in the test with HCT-15 colon it was 11.9 µM. In addition, the results for the TGI in the test on HOP-62 NSCLC and in the test on UO-31 renal were 33.1 µM and 13.3 µM, respectively.

Consider `O=C1c2ccccc2C(=O)c2c(NCC3CO3)cccc21` (stereo unspecified), for which the TGI in the test on T-47D breast is above 100 µM; in the test with RXF 393 renal, 20.6 µM; in the test on HT29 colon, above 86 µM; with ACHN renal it was 31.4 µM; with OVCAR-8 ovarian it was 24.8 µM; in the test with HCT-15 colon, 32 µM. Also, the TGI in the test with HOP-62 NSCLC is above 100 µM; in the test with UO-31 renal, 22.5 µM.

Regarding `CCN(CCN(CC)C(=O)NC)C(=O)NC`, the TGI in the test with T-47D breast, in the test with RXF 393 renal, in the test on HT29 colon, in the test on ACHN renal, in the test on OVCAR-8 ovarian and with HCT-15 colon was above 100 µM throughout. The TGI with HOP-62 NSCLC and in the test on UO-31 renal was above 100 µM throughout.

For `CC(=O)CC12NC(=O)N(C)N=C1N(C)C(=O)N(C)C2=O` (stereo unspecified), the TGI in the test on T-47D breast, in the test on RXF 393 renal, in the test on HT29 colon, with ACHN renal, in the test with OVCAR-8 ovarian and in the test with HCT-15 colon was above 100 µM in each case. In addition, the TGI with HOP-62 NSCLC and in the test on UO-31 renal was above 100 µM each time.

For the molecule `CC(C)(/C=N/O)/[N+]([O-])=C/c1ccccc1`, the TGI with T-47D breast, with RXF 393 renal, with HT29 colon, in the test with ACHN renal, in the test on OVCAR-8 ovarian and in the test on HCT-15 colon was above 100 µM in each case. Moreover, the TGI with HOP-62 NSCLC and in the test on UO-31 renal was above 100 µM each time.

`O=C1CCc2ccccc2O1`: the TGI in the test on T-47D breast, with RXF 393 renal, in the test with HT29 colon, in the test with ACHN renal, in the test with OVCAR-8 ovarian and in the test with HCT-15 colon was above 100 µM in each case. The TGI in the test with HOP-62 NSCLC and with UO-31 renal was above 100 µM throughout.

For `CCOC(=O)C(NC(=O)c1ccccc1)(Nc1ccc(S(=O)(=O)Nc2ccc(OC)nn2)cc1)C(F)(F)F` (stereo unspecified), the TGI in the test with T-47D breast, in the test with RXF 393 renal, in the test with HT29 colon, with ACHN renal, in the test with OVCAR-8 ovarian and in the test on HCT-15 colon was above 100 µM in each case. Also, the TGI in the test on HOP-62 NSCLC and in the test with UO-31 renal was above 100 µM throughout.

With `COc1cc2c(cc1OC)-c1[nH]c3ccc([N+](=O)[O-])cc3c1CC(=O)N2`, the TGI in the test on T-47D breast was above 60.5 µM; in the test with RXF 393 renal, 4.82 µM; with HT29 colon, above 100 µM; in the test on ACHN renal, 6.2 µM; with OVCAR-8 ovarian it was above 100 µM; in the test with HCT-15 colon, above 100 µM. Besides, the TGI was 9.81 µM in the test with HOP-62 NSCLC and above 23.8 µM with UO-31 renal.

Turning to `O=[N+]([O-])c1ccc2c(N=Nc3ccc4ccccc4c3O)c(O)cc(S(=O)(=O)O)c2c1`, the TGI in the test on T-47D breast is above 100 µM; in the test on RXF 393 renal, above 100 µM; with HT29 colon, above 100 µM; in the test on ACHN renal, 50.3 µM; with OVCAR-8 ovarian, above 93.6 µM; in the test with HCT-15 colon, above 100 µM. For the same molecule, the TGI turned out to be 99.7 µM in the test on HOP-62 NSCLC and 47.4 µM in the test with UO-31 renal.

Take `Cc1ccc(O)cc1` (tested in a mixture with another compound): the TGI with T-47D breast, in the test with RXF 393 renal, with HT29 colon, in the test with ACHN renal, in the test with OVCAR-8 ovarian and with HCT-15 colon was above 100 µM throughout. For the same molecule, the TGI with HOP-62 NSCLC and with UO-31 renal was above 100 µM each time.

Regarding `CCOP(=O)(OCC)C(C)(CC)/N=C(\N)NC#N` (stereo unspecified), the TGI in the test with T-47D breast, in the test with RXF 393 renal, in the test with HT29 colon, with ACHN renal, in the test on OVCAR-8 ovarian and in the test with HCT-15 colon was above 100 µM each time. The TGI with HOP-62 NSCLC and in the test on UO-31 renal was above 100 µM in each case.

Consider `CC1(C)OC2[C@@H](CO[C@@]3([C@H]4OC(C)(C)O[C@@H]4CO)OC(C)(C)O[C@@H]23)O1` (stereo partly specified), for which the TGI with T-47D breast, in the test with RXF 393 renal, with HT29 colon, in the test with ACHN renal, with OVCAR-8 ovarian and with HCT-15 colon was above 100 µM in each case. In addition, the TGI in the test with HOP-62 NSCLC and in the test on UO-31 renal was above 100 µM throughout.
